In assay [1] the test system is RORγ. The arrangement: method as in numbers not given. Particulars: Figure 4, collected from the literature; ref numbers not given; cited from earlier work.
Assay [2] concerns Il17a and Il17f (Il17a/f). Put plainly: RT-qPCR of Il17a and Il17f in EL-4-mRORγt cells. The conditions noted are these: then 4.5-h PMA and ionomycin. Format: cell-based, murine. The protocol: For RT-qPCR assays, 5 × 10^5 EL-4-mRORγt cells were seeded in 500 μL complete DMEM per well of a 24-well plate and treated with the vehicle control, the positive control, or the compounds of interest. After incubation for 20–24 h, cells were stimulated with Cell Activation Cocktail (PMA: 40.5 μM, ionomycin: 669.3 μM; 500X) for 4.5 h. Afterward, total RNA was isolated using the innuPREP RNA Mini Kit 2.0 according to the manufacturer’s instructions. According to the manufacturer’s instructions, 1 μg RNA was reverse-transcribed into cDNA using the High-Capacity cDNA Reverse Transcription Kit. RT-qPCR was performed using the Luna Universal qPCR Master Mix on a LightCycler 480 (Roche Diagnostics, Rotkreuz, Switzerland) according to the manufacturer’s instructions. […] Livak’s 2−ΔΔCt method was employed to determine the expression levels of RORγ target genes. This involved normalizing the target gene expression to the expression levels of the control gene 18s, followed by further normalization to the vehicle control.
A general note: In qPCR the cycle at which signal appears reflects the starting amount.

Assay [3] has as its target T1, Gal4-hRORγ (Homo sapiens, UniProt P51449).
T1 construct: Encodes for a hRORγ-LBD:Gal4-DBD fusion protein; expressed in transfected cells; host or cells: HEK293
T1 sequence (P51449 269-508 limits assumed): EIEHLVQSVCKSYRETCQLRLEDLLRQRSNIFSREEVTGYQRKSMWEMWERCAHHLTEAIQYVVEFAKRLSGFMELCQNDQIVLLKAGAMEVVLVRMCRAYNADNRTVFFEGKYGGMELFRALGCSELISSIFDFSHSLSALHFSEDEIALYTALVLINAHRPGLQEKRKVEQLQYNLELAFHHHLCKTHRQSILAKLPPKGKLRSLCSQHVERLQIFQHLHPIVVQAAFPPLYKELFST
Put plainly: Gal4-RORγ mammalian one-hybrid luciferase assay. The assay is classed as cell-based. The conditions noted are these: HEK293 cells; for IC50: 18 h treatment, up to 5 μM. The protocol: (§1) For luciferase assays, 8 × 10^6 HEK293 cells were seeded on 150 mm cell culture dishes and incubated for 5 h. Afterward, cells were transfected with the calcium phosphate coprecipitation method using 5 μg of the nuclear receptor (Gal4-hRORγ or full-length human RORγ), 5 μg of a luciferase reporter (pTK-MH100 × 4-LUC for Gal4-hRORγ experiments or RORE-LUC for full-length human RORγ experiments) and 3 μg eGFP-N1 (for assessing transfection efficiency) plasmid DNA and incubated overnight. […] The medium was changed the following day, and cells were further incubated for another four to 5 h before trypsin/EDTA was added to detach them from the dishes. […] RLUs were normalized to relative fluorescence units (RFU) to account for differences in cell number and transfection efficiency and then normalized to the vehicle control. Results are expressed as fold activation relative to the vehicle control.
(§2) Concentration–response data were analyzed in GraphPad Prism version 10 by three-parameter logistic nonlinear regression, with the Hill slope constrained to a theoretical value of −1.0. An IC50 value was determined only for compounds yielding a statistically reliable fit. […] In these cases, only the maximal inhibition achieved at the highest tested concentration (I max(%) at 5 μM) is reported, calculated as follows: Imax(%)=(1−Bottom/Top)×100 (“top” = baseline activity measured at the lowest concentration, “bottom” = residual activity observed at the highest concentration, corresponding to the maximal inhibitory effect).

In assay [4] the target is T2, Gal4-RORγ H479L (Homo sapiens, UniProt P51449, H479L).
T2 sequence (P51449 269-508 H479L limits assumed): T1 sequence (P51449 269-508 limits assumed) with H211L
Kind of assay: Gal4-RORγ H479L mutant luciferase assay. The conditions noted are these: 5 μM.
Procedure: Gal4-hRORγ H323A and H479L mutants were generated using the QuikChange Lightning Site-Directed Mutagenesis Kit according to the manufacturer’s instructions. Briefly, 10 ng template DNA (Gal4-hRORγ) was PCR-amplified with the respective mutagenic forward and reverse primers listed in Table S3, which were designed using the QuikChange Primer Design tool (https://www.agilent.com/store/primerDesignProgram.jsp). […] Two μL of the PCR product were then transformed into XL1-Blue competent E. coli according to a protocol provided by NEB. […] After centrifuging the main culture at 5691g for 10 min, the supernatant was decanted, and plasmid preparation was performed using the PureLink HiPure Plasmid Midiprep Kit according to the manufacturer’s instructions. DNA yields and purities were checked using a NanoDrop 2000c (Thermo Fisher Scientific, Waltham, MA, USA).

For assay [5], the target named is T3, hRORγ LBD (Homo sapiens, UniProt P51449).
T3 construct: His tag (N, cleaved yes); made in house; host or cells: Escherichia coli BL21 DE3
T3 sequence (P51449 264-518): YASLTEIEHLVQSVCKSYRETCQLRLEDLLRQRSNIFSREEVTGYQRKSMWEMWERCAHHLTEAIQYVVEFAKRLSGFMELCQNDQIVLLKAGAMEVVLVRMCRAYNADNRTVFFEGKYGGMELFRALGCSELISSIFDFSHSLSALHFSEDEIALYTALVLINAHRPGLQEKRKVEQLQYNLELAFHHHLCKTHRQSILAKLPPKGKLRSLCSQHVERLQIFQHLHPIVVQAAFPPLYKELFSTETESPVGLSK
Kind of assay: Thermal stability by nano differential scanning fluorimetry (nanoDSF). The assay is classed as binding. The conditions noted are these: RORγ-LBD with 4 equiv ligand vs without ligand; mean ± SD. The protocol:
Soluble proteins were purified on Ni Hitrap FFcrude column (Cytiva), followed by His tag removal by thrombin (MP Biomedicals) cleavage and by size exclusion chromatography on HiLoad Superdex200 column (Cytiva) equilibrated in 20 mM Tris-HCl pH 7.5, 150 mM NaCl, 1 mM TCEP (Hampton Research). Purity and homogeneity of the hRORγ LBD were assessed by SDS-PAGE. The purified protein was concentrated to 0.5–1.0 mg/mL with an Amicon Ultra 10 kDa MWCO. The aliquots of purified LBD were incubated with 4 equiv ligands or vehicle for thermal stability experiments.
Fluorescence-based thermal experiments were performed using a Prometheus NT.48 (NanoTemper Technologies, Germany) with grade standard capillaries containing 10 μL of RORγLBD with different ligands. […] NanoTemper PR. Stability Analysis v1.0.2 was used to fit the data and determine the melting temperatures Tm.
On the technique in general: Differential scanning fluorimetry follows unfolding on heating by fluorescence.

Assay [6] concerns the target T4, full-length human RORγ (Homo sapiens, UniProt P51449).
T4 construct: Encodes for the full-length human RORγ; expressed in transfected cells; host or cells: HEK293
T4 sequence (P51449 1-518): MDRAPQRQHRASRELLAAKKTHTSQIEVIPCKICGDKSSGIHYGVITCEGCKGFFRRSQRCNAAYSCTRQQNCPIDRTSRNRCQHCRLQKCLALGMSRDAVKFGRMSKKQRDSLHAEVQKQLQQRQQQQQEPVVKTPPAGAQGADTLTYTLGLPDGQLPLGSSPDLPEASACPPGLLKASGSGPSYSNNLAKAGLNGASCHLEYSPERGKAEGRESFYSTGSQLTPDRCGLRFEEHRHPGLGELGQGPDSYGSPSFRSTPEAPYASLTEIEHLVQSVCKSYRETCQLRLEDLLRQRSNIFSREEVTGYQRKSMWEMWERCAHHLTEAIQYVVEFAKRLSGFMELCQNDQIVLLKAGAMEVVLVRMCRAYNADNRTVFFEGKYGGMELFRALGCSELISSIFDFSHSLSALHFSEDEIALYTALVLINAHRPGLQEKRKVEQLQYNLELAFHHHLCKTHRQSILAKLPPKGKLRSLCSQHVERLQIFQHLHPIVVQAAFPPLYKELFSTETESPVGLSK
Kind of assay: Full-length RORγ luciferase assay (RORE-LUC reporter). Format: cell-based. The protocol:
as §1, §2

The mark [7] stands for this setting: pretreated 20–24 h at indicated concentrations.

Changes are numbered by the printed parent chain. Like-named read-outs stand apart in the source and are kept apart here.

The source of these data is publication PMC12379159 (Journal of Natural Products, 2025).

As to `C=C1C[C@]2(C)[C@H]3CC[C@@H]4[C@H]5[C@H](C(=C)C)CC[C@]5(C(=O)NCCCN(C)C)CC[C@@]4(C)[C@]3(C)CC[C@H]2C(C)(C)C1=O` [Compound 25], in assay [1], the “RORγ inverse agonist or agonist” value is “Inverse agonist”.
In the case of `OC(c1ccc(-c2ccc(CN3CCN(Cc4ccncc4)CC3)cc2)c(F)c1)(C(F)(F)F)C(F)(F)F` [SR2211, reference compound], in assay [2] (5 μM, 20–24 h), the Il17a/f expression result is “significant and reproducible down-regulation”.
On to `C[C@H]1[C@H](C)CC[C@]2(C(=O)O)CC[C@]3(C)C(=CC[C@@H]4[C@@]5(C)CCC(=O)C(C)(C)[C@@H]5CC[C@]43C)[C@H]12` [Ursonic acid], for which the “RORγ inverse agonist or agonist” value in assay [1] is listed as “Inverse agonist”.
For `COc1ccc(CC(=O)Nc2cc3oc4ccccc4c3cc2OC)cc1` [Compound 5], in assay [3] (3 μM), the “Activity in Gal4-RORγ luciferase assay (initial screen)” value was “agonistic activity”.
As to `C=C(C)[C@@H]1CC[C@]2(C(=O)OC)CC[C@]3(C)[C@H](CC[C@@H]4[C@@]5(C)C/C(=C/c6ccco6)C(=O)C(C)(C)[C@@H]5CC[C@]43C)[C@@H]12` [Compound 15.4], the “Activity on Gal4-RORγ H479L vs WT” value in assay [4] is “remained inactive”. In assay [5], the “ΔTm measured with nano differential scanning fluorimetry” value was 1.1 ± 0.2 °C. Moreover, the “Imax(%) at 5 μM, Gal4-RORγ luciferase assay” value in assay [3] was found to be 0%. In addition, in assay [2] (setting [7]), the Il17a/f expression entry is “slightly but significantly up-regulated”. The “Imax(%) at 5 μM, full-length RORγ luciferase assay” value in assay [6] (HEK293 cells) turned out to be 0%.
Turning to `CC(C)CCC[C@H](CCCC(C)(C)O)[C@H]1CC[C@H]2[C@@H]3CC=C4C[C@@H](O)CC[C@]4(C)[C@H]3CC[C@]12C` [Gemini-cholesterol analogue], the “RORγ inverse agonist or agonist” value in assay [1] is “Inverse agonist”.
Take `C=C(C)[C@@H]1CC[C@]2(C(=O)O)CC[C@]3(C)[C@H](CC[C@@H]4[C@@]5(C)C/C(=C\c6ccccc6OC)C(=O)C(C)(C)[C@@H]5CC[C@]43C)[C@@H]12` [Compound 15.1]: the “ΔTm measured with nano differential scanning fluorimetry” value in assay [5] worked out at 5.9 ± 0.4 °C. Besides, in assay [3], the “Imax(%) at 5 μM, Gal4-RORγ luciferase assay” value is given as 34%. In assay [2] (setting [7]), the Il17a/f expression result is “inactive”. Also, the “Imax(%) at 5 μM, full-length RORγ luciferase assay” value in assay [6] (HEK293 cells) was 24%.
With `C=C(C)[C@@H]1CC[C@]2(C(=O)NCCCN(C)C)CC[C@]3(C)[C@H](CC[C@@H]4[C@@]5(C)CC[C@H](O)C(C)(C)[C@@H]5CC[C@]43C)[C@@H]12` [Compound 24], the “RORγ inverse agonist or agonist” value in assay [1] is listed as “Inverse agonist”.
Turning to `C=C(C)[C@@H]1CC[C@]2(C(=O)O)CC[C@]3(C)[C@H](CC[C@@H]4[C@@]5(C)C/C(=C/c6cccc(I)c6)C(=O)C(C)(C)[C@@H]5CC[C@]43C)[C@@H]12` [Compound 15.2], in assay [4], the “Activity on Gal4-RORγ H479L vs WT” value is “loss of activity”. In addition, the “ΔTm measured with nano differential scanning fluorimetry” value in assay [5] was 2.2 ± 0.5 °C. In assay [3], the “Imax(%) at 5 μM, Gal4-RORγ luciferase assay” value came to 58% and half-maximal inhibition (IC50) was put at 3.1 µM. Further, in assay [2] (setting [7]), the Il17a/f expression entry was “significant and concentration-dependent reduction”. Besides, in assay [6] (HEK293 cells), the “Imax(%) at 5 μM, full-length RORγ luciferase assay” value was 55%.
On to `CC(C)=CCC[C@H](C)[C@H]1CC[C@H]2C3=C(CC[C@]12C)[C@@]1(C)CC[C@H](O)[C@@](C)(C(=O)O)C1CC3` (stereo partly drawn) [4α-carboxy-4β-methyl-zymosterol], for which the “RORγ inverse agonist or agonist” value in assay [1] was “Agonist”.
As to `C[C@@H]1CC[C@@]2(OC1)O[C@H]1C[C@H]3[C@@H]4CC=C5C[C@@H](O)CC[C@]5(C)[C@H]4CC[C@]3(C)[C@H]1[C@@H]2C` [Diosgenin], the “RORγ inverse agonist or agonist” value in assay [1] is “Inverse agonist”.
With `C=C(C)[C@@H]1CC[C@]2(C=O)CC[C@]3(C)[C@H](CC[C@@H]4[C@@]5(C)CC[C@H](O)C(C)(C)[C@@H]5CC[C@]43C)[C@@H]12` [Betulinaldehyde], the “RORγ inverse agonist or agonist” value in assay [1] is on record as “Agonist”.
Take `C[C@H]1[C@H](C)CC[C@]2(C(=O)O)CC[C@]3(C)C(=CC[C@@H]4[C@@]5(C)CC[C@H](O)C(C)(C)[C@@H]5CC[C@]43C)[C@H]12` [Ursolic acid]: in assay [1], the “RORγ inverse agonist or agonist” value is “Inverse agonist”.
As to `C=C(C)[C@@H]1CC[C@]2(C(=O)O)CC[C@]3(C)[C@H](CC[C@@H]4[C@@]5(C)C/C(=C/c6ccccc6)C(=O)C(C)(C)[C@@H]5CC[C@]43C)[C@@H]12` [Compound 15.3], the “Activity on Gal4-RORγ H479L vs WT” value in assay [4] is reported as “loss of activity”. Moreover, the “ΔTm measured with nano differential scanning fluorimetry” value in assay [5] was found to be 2.8 ± 0.2 °C. The “Imax(%) at 5 μM, Gal4-RORγ luciferase assay” value in assay [3] came to 53%. In addition, the IC50 in assay [3] was 2.7 µM; in assay [6] (HEK293 cells, 18 h treatment, up to 5 μM, read-out: IC50, full-length RORγ luciferase assay) it was above 5 µM; in assay [6] (exceeds the highest concentration tested, only an estimate, read-out: Estimated IC50, full-length RORγ luciferase assay), 5.7 µM. Also, in assay [2] (setting [7]), the Il17a/f expression result was “significant and concentration-dependent reduction”. Besides, in assay [6] (HEK293 cells), the “Imax(%) at 5 μM, full-length RORγ luciferase assay” value is reported as 67%.

The term IC50 denotes the concentration that inhibits the measured activity by half.
